Data as given in ChEMBL document CHEMBL5244219, “Recent developments of quinolone-based derivatives and their activities against Escherichia coli” (Eur J Med Chem, 2018).
Converted amounts (≈) assume the structure as drawn. Values belong to the compound of their own block, whether it stands above or below them.

Assays:
Format in all cases: functional
Escherichia coli [1] = assay: Antibacterial activity against Escherichia coli NCTC 10418 assessed as bacterial growth inhibition incubated for 18 to 20 hrs by agar dilution method; details: time 18-20 hrs
Escherichia coli [2] = assay: Antibacterial activity against Escherichia coli assessed as bacterial growth inhibition measured after 24 hrs by broth micro dilution method
Escherichia coli [3] = assay: Antibacterial activity against Escherichia coli NIHJ JC-2 assessed as bacterial growth inhibition measured after 24 hrs by agar dilution method
Escherichia coli [4] = assay: Antibacterial activity against Escherichia coli NIHJ assessed as bacterial growth inhibition measured after 24 hrs by agar dilution method
Escherichia coli [5] = assay: Antibacterial activity against Escherichia coli 2010-05 assessed as bacterial growth inhibition measured after 24 hrs by agar dilution method
Escherichia coli [6] = assay: Antibacterial activity against Escherichia coli 2010-29 assessed as bacterial growth inhibition measured after 24 hrs by agar dilution method
Escherichia coli [7] = assay: Antibacterial activity against Escherichia coli MTCC 739 assessed as bacterial growth inhibition incubated for 24 hrs by spectrophotometric method
Escherichia coli [8] = assay: Antibacterial activity against Escherichia coli assessed as zone of inhibition at 500 to 1000 ug per disc; details: dose 500-1000 µg
Escherichia coli [9] = assay: Antibacterial activity against Escherichia coli assessed as bacterial growth inhibition incubated for 16 to 24 hrs by absorbance analysis; details: time 16-24 hrs
Escherichia coli [10] = assay: Antibacterial activity against Escherichia coli ATCC 8739 assessed as bacterial growth inhibition incubated for 24 hrs by two-serial dilution method
Escherichia coli [11] = assay: Antibacterial activity against Escherichia coli assessed as bacterial growth inhibition incubated for 18 to 20 hrs by agar dilution method; details: time 18-20 hrs
Escherichia coli [12] = assay: Antibacterial activity against Escherichia coli KC-14 infected in po dosed mouse assessed as bacterial growth inhibition; details: Escherichia coli, KC-14, po, read-out: ED50

MIC (Escherichia coli [1]): ≤ 0.018 µg/mL
SMILES: CCn1cc(C(=O)O)c(=O)c2cc(F)c(N3CCN(CN4C(=O)C(=O)c5cc(Br)ccc54)CC3)cc21

MIC (Escherichia coli [3]): 0.008 µg/mL (≈ 0.0177 µM) | MIC (Escherichia coli [4]): 0.008 µg/mL (≈ 0.0177 µM) | MIC (Escherichia coli [5]): 1 µg/mL (≈ 2.22 µM) | MIC (Escherichia coli [6]): 1 µg/mL (≈ 2.22 µM)
SMILES: Nc1cc(-n2cc(C(=O)O)c(=O)c3cc(F)c(N4CC(N)C4)c(Cl)c32)c(CO)cc1F

MIC (Escherichia coli [1]): ≤ 0.018 µg/mL
SMILES: CCn1cc(C(=O)O)c(=O)c2cc(F)c(N3CCN(CN4C(=O)C(=O)c5ccccc54)CC3)cc21

MIC (Escherichia coli [3]): 0.008 µg/mL (≈ 0.0167 µM) | MIC (Escherichia coli [4]): 0.008 µg/mL (≈ 0.0167 µM) | MIC (Escherichia coli [5]): 1 µg/mL (≈ 2.09 µM) | MIC (Escherichia coli [6]): 1 µg/mL (≈ 2.09 µM)
SMILES: CCNC1CN(c2c(F)cc3c(=O)c(C(=O)O)cn(-c4cc(N)c(F)cc4CO)c3c2Cl)C1

MIC (Escherichia coli [7]): 25 µg/mL (≈ 50.2 µM)
SMILES: Cn1c(=O)cc(OCc2nn(CN3CCN(c4ccccc4F)CC3)c(=S)s2)c2ccccc21

MIC (Escherichia coli [1]): ≤ 0.018 µg/mL
SMILES: CCn1cc(C(=O)O)c(=O)c2cc(F)c(N3CCN(CN4C(=O)C(=O)c5cc(Cl)ccc54)CC3)cc21

MIC (Escherichia coli [10]): > 3 µg/mL
SMILES: O=C(O)c1cn(C2CC2)c2c(cc(F)c3nc(-c4ccc(Cl)cc4)[nH]c32)c1=O

MIC (Escherichia coli [7]): 25 µg/mL (≈ 47 µM)
SMILES: Cn1c(=O)cc(OCc2nn(CN3CCN(c4cccc(C(F)(F)F)c4)CC3)c(=S)o2)c2ccccc21

MIC (Escherichia coli [7]): 25 µg/mL (≈ 45.7 µM)
SMILES: Cn1c(=O)cc(OCc2nn(CN3CCN(c4cccc(C(F)(F)F)c4)CC3)c(=S)s2)c2ccccc21

MIC (Escherichia coli [11]): 0.0763 µg/mL (≈ 0.102 µM)
SMILES: CCn1cc(C(=O)O)c(=O)c2cc(F)c(N3CCN(CN4C(=O)/C(=N\c5ncc(Cc6cc(OC)c(OC)c(OC)c6)c(N)n5)c5ccccc54)CC3)cc21

MIC (Escherichia coli [7]): 25 µg/mL (≈ 51.9 µM)
SMILES: Cn1c(=O)cc(OCc2nn(CN3CCN(c4ccc(F)cc4)CC3)c(=S)o2)c2ccccc21

MIC (Escherichia coli [10]): > 3 µg/mL
SMILES: Cc1ccc(-c2nc3c(F)cc4c(=O)c(C(=O)O)cn(C5CC5)c4c3[nH]2)cc1

MIC (Escherichia coli [7]): 25 µg/mL (≈ 51.9 µM)
SMILES: Cn1c(=O)cc(OCc2nn(CN3CCN(c4ccccc4F)CC3)c(=S)o2)c2ccccc21

MIC (Escherichia coli [10]): > 3 µg/mL
SMILES: O=C(O)c1cn(C2CC2)c2c(cc(F)c3nc(-c4ccc(F)cc4)[nH]c32)c1=O

MIC (Escherichia coli [10]): > 3 µg/mL
SMILES: O=C(O)c1cn(C2CC2)c2c(cc(F)c3nc(-c4ccccn4)[nH]c32)c1=O

MIC (Escherichia coli [3]): 0.008 µg/mL (≈ 0.0167 µM) | MIC (Escherichia coli [4]): 0.008 µg/mL (≈ 0.0167 µM) | MIC (Escherichia coli [5]): 1 µg/mL (≈ 2.09 µM) | MIC (Escherichia coli [6]): 1 µg/mL (≈ 2.09 µM)
SMILES: CNC1(C)CN(c2c(F)cc3c(=O)c(C(=O)O)cn(-c4cc(N)c(F)cc4CO)c3c2Cl)C1

MIC (Escherichia coli [11]): 0.0095 µg/mL (≈ 0.0125 µM)
SMILES: COc1cc(Cc2cnc(/N=C3\C(=O)N(CN4CCN(c5cc6c(cc5F)c(=O)c(C(=O)O)cn6C5CC5)CC4)c4ccccc43)nc2N)cc(OC)c1OC

Further lines, the compound ahead of its results:

SMILES: CCn1cc(C(=O)O)c(=O)c2cc(F)c(-n3cc(CO[C@H]4O[C@@H](C)[C@H](OC(C)=O)[C@@H](OC(C)=O)[C@H]4OC(C)=O)nn3)c(F)c21
MIC (Escherichia coli [2]): > 6.25 µg/mL

SMILES: CCn1cc(C(=O)O)c(=O)c2cc(F)c(-n3cc(CO[C@H]4OC[C@@H](OC(C)=O)[C@@H](OC(C)=O)[C@@H]4OC(C)=O)nn3)c(F)c21
MIC (Escherichia coli [2]): > 6.25 µg/mL

SMILES: CNC1CN(c2c(F)c(N)c3c(=O)c(C(=O)O)cn(-c4cc(N)c(F)cc4CO)c3c2Cl)C1
MIC (Escherichia coli [3]): 0.008 µg/mL (≈ 0.0167 µM) | MIC (Escherichia coli [4]): 0.008 µg/mL (≈ 0.0167 µM) | MIC (Escherichia coli [5]): 1 µg/mL (≈ 2.08 µM) | MIC (Escherichia coli [6]): 1 µg/mL (≈ 2.08 µM)

SMILES: CCn1cc(C(=O)O)c(=O)c2cc(F)c(-n3cc(CO[C@H]4O[C@H](COC(C)=O)[C@@H](OC(C)=O)[C@H](OC(C)=O)[C@H]4NC(C)=O)nn3)c(F)c21
MIC (Escherichia coli [2]): > 6.25 µg/mL

SMILES: O=c1[nH]c2ccccc2c2c1cnn2Cc1ccccc1
diameter of the inhibition zone (DIZ) (Escherichia coli [8]): 7 mm

SMILES: Cc1ccc2[nH]c(C)c(CC(=O)O)c(=O)c2c1
MIC (Escherichia coli [9]): 8.97 µg/mL (≈ 38.8 µM)

SMILES: O=c1[nH]c2ccc(Cl)cc2c2c1cnn2Cc1ccccc1
diameter of the inhibition zone (DIZ) (Escherichia coli [8]): 7 mm

SMILES: O=c1[nH]c2ccc(F)cc2c2c1cnn2Cc1ccccc1
diameter of the inhibition zone (DIZ) (Escherichia coli [8]): 7 mm

SMILES: CNC1CN(c2c(F)c(C)c3c(=O)c(C(=O)O)cn(-c4cc(N)c(F)cc4CO)c3c2Cl)C1
MIC (Escherichia coli [3]): 0.008 µg/mL (≈ 0.0167 µM) | MIC (Escherichia coli [4]): 0.008 µg/mL (≈ 0.0167 µM) | MIC (Escherichia coli [5]): 1 µg/mL (≈ 2.09 µM) | MIC (Escherichia coli [6]): 1 µg/mL (≈ 2.09 µM)

SMILES: COc1ccc(N2CCN(Cn3nc(COc4cc(=O)n(C)c5ccccc45)oc3=S)CC2)cc1
MIC (Escherichia coli [7]): 25 µg/mL (≈ 50.6 µM)

SMILES: Cc1[nH]c2ccc(Br)cc2c(=O)c1CC(=O)O
MIC (Escherichia coli [9]): 8.97 µg/mL (≈ 30.3 µM)

SMILES: Cc1[nH]c2cc3ccccc3cc2c(=O)c1CC(=O)O
MIC (Escherichia coli [9]): 8.97 µg/mL (≈ 33.6 µM)

SMILES: CCn1c(=O)c(C(=O)/C=C/c2ccsc2)c(O)c2ccccc21
diameter of the inhibition zone (DIZ) (Escherichia coli [8]): 7 mm

SMILES: O=C(O)c1cn(C2CC2)c2c(cc(F)c3nc(-c4cccs4)[nH]c32)c1=O
MIC (Escherichia coli [10]): > 3 µg/mL

SMILES: O=C(O)c1cn(C2CC2)c2c(cc(F)c3nc[nH]c32)c1=O
MIC (Escherichia coli [10]): > 3 µg/mL

SMILES: O=C(O)c1cn(C2CC2)c2c(cc(F)c3nc(-c4ccco4)[nH]c32)c1=O
MIC (Escherichia coli [10]): > 3 µg/mL

SMILES: Cc1ccc2[nH]c(=O)c3cnn(Cc4ccccc4)c3c2c1
diameter of the inhibition zone (DIZ) (Escherichia coli [8]): 7 mm

SMILES: CCOC(=O)c1c2n(c3cc(N4CCN(C(C)=O)CC4)c(F)cc3c1=O)C(C)S2 (stereo not given)
ED50 (Escherichia coli [12]): 0.89 mg/kg
